Measured values as given in patent publication US10765114B2, “4-amino-6-(pyridyl and 2-substitutedphenyl)-picolinates and 6-amino-2-(pyridyl and 2-substitutedphenyl)-pyrimidine-4-carboxylates and their use as herbicides” (Dow AgroSciences LLC, priority 2013, dated 2020).
Like-named read-outs stand apart in the source and are kept apart here.

How the values were obtained:
[1] = test system: Key Grass and Sedge Weeds as well as Grass Crops; assay: Post-Emergent Test II (Table 6); assay type: in vivo; details: post-emergence, 336 h, 14 days after application; for pest or weed control at 70 g/ha: 70 g ai/ha; for pest or weed control at 140 g/ha: 140 g ai/ha
Procedure, shortened: (§1)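 Growth stage at treatment: first or second true leaf. Application: compound in acetone/DMSO diluted into an adjuvant-containing aqueous mix, sprayed at 187 L/ha at several rates. Assessment: visual 0-100% injury at 14 days against untreated plants.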

[2] = test system: Key Broadleaf Weed and Crop Species; assay: Post-Emergent Test II (Table 5); assay type: in vivo; details: post-emergence, 336 h; for pest or weed control at 70 g/ha: application rate 70 (kg ai/ha; footnote: g ai/ha); for pest or weed control at 140 g/ha: application rate 140 (kg ai/ha; footnote: g ai/ha)
Procedure, shortened: as §1

[3] = CYPSS, read-out: Visual Growth Reduction (%) 14 Days After Application CYPSS
[4] = DIGSA: crabgrass (Digitaria sanguinalis), read-out: Visual Growth Reduction (%) 14 Days After Application DIGSA
[5] = ECHSS, read-out: Visual Growth Reduction (%) 14 Days After Application ECHSS
[6] = ORYSS (crop), read-out: Visual Growth Reduction (%) 14 Days After Application ORYSS
[7] = SETFA: giant foxtail (Setaria faberi), read-out: Visual Growth Reduction (%) 14 Days After Application SETFA
[8] = SORVU: grain sorghum (Sorghum vulgare), read-out: Visual Growth Reduction (%) 14 Days After Application SORVU
[9] = TRZSS (crop), read-out: Visual Growth Reduction (%) 14 Days After Application TRZSS
[10] = ZEAMX: maize, corn (Zea mays), read-out: Visual Growth Reduction (%) 14 Days After Application ZEAMX
[11] = Abutilon theophrasti, ABUTH: velvetleaf (Abutilon theophrasti), read-out: Visual Growth Reduction (%) 14 Days After Application ABUTH
[12] = Amaranthus retroflexus, AMARE: redroot pigweed (Amaranthus retroflexus), read-out: Visual Growth Reduction (%) 14 Days After Application AMARE
[13] = Brassica napus, BRSSS: oilseed rape, canola (Brassica napus), read-out: Visual Growth Reduction (%) 14 Days After Application BRSSS
[14] = Chenopodium album, CHEAL: lambsquarters (Chenopodium album), read-out: Visual Growth Reduction (%) 14 Days After Application CHEAL
[15] = Euphorbia heterophylla, EPHHL: wild poinsettia (Euphorbia heterophylla), read-out: Visual Growth Reduction (%) 14 Days After Application EPHHL
[16] = Helianthus annuus, HELAN: sunflower (Helianthus annuus), read-out: Visual Growth Reduction (%) 14 Days After Application HELAN
[17] = Viola tricolor, VIOTR: wild pansy (Viola tricolor), read-out: Visual Growth Reduction (%) 14 Days After Application VIOTR

Compound | melting point [°C] | pest or weed control at 70 g/ha [1, 3] [%] | pest or weed control at 140 g/ha [1, 3] [%] | pest or weed control at 70 g/ha [1, 4] [%] | pest or weed control at 140 g/ha [1, 4] [%] | pest or weed control at 70 g/ha [1, 5] [%] | pest or weed control at 140 g/ha [1, 5] [%] | pest or weed control at 70 g/ha [1, 6] [%] | pest or weed control at 140 g/ha [1, 6] [%] | pest or weed control at 70 g/ha [1, 7] [%] | pest or weed control at 140 g/ha [1, 7] [%] | pest or weed control at 70 g/ha [1, 8] [%] | pest or weed control at 140 g/ha [1, 8] [%] | pest or weed control at 70 g/ha [1, 9] [%] | pest or weed control at 140 g/ha [1, 9] [%] | pest or weed control at 70 g/ha [1, 10] [%] | pest or weed control at 140 g/ha [1, 10] [%] | pest or weed control at 70 g/ha [2, 11] [%] | pest or weed control at 140 g/ha [2, 11] [%] | pest or weed control at 70 g/ha [2, 12] [%] | other results
COC(=O)c1nc(-c2ccc(Cl)c(F)c2C)c(F)c(N)c1Cl [Compound 68] | 154 to 156 | 0 to 29 | 0 to 29 | 0 to 29 | 0 to 29 | 0 to 29 | 0 to 29 | 0 to 29 | 0 to 29 | 0 to 29 | 0 to 29 | 0 to 29 | 0 to 29 | 0 to 29 | 0 to 29 | 0 to 29 | 0 to 29 | 95 to 100 | 95 to 100 | 95 to 100 | pest or weed control at 140 g/ha [2, 12]: 95 to 100%; pest or weed control at 70 g/ha [2, 13]: 85 to 94%; pest or weed control at 140 g/ha [2, 13]: 95 to 100%; pest or weed control at 70 g/ha [2, 14]: 95 to 100%; pest or weed control at 140 g/ha [2, 14]: 95 to 100%; pest or weed control at 70 g/ha [2, 15]: 0 to 29%; pest or weed control at 140 g/ha [2, 15]: 0 to 29%; pest or weed control at 70 g/ha [2, 16]: 95 to 100%; pest or weed control at 140 g/ha [2, 16]: 95 to 100%; pest or weed control at 70 g/ha [2, 17]: 30 to 44%; pest or weed control at 140 g/ha [2, 17]: 30 to 44%
COC(=O)c1nc(-c2ccc(Cl)nc2OC)cc(N)c1Cl [Compound 48] | 109 to 111 | 0 to 29 | 0 to 29 | 0 to 29 | 0 to 29 | 0 to 29 | 0 to 29 | 0 to 29 | 0 to 29 | 0 to 29 | 0 to 29 | 0 to 29 | 0 to 29 | 0 to 29 | 0 to 29 | 0 to 29 | 45 to 59 | 85 to 94 | 85 to 94 | 95 to 100 | pest or weed control at 140 g/ha [2, 12]: 95 to 100%; pest or weed control at 70 g/ha [2, 13]: 0 to 29%; pest or weed control at 140 g/ha [2, 13]: 45 to 59%; pest or weed control at 70 g/ha [2, 14]: 95 to 100%; pest or weed control at 140 g/ha [2, 14]: 95 to 100%; pest or weed control at 70 g/ha [2, 15]: 0 to 29%; pest or weed control at 140 g/ha [2, 15]: 0 to 29%; pest or weed control at 70 g/ha [2, 16]: 85 to 94%; pest or weed control at 140 g/ha [2, 16]: 85 to 94%; pest or weed control at 70 g/ha [2, 17]: 45 to 59%; pest or weed control at 140 g/ha [2, 17]: 60 to 74%
COC(=O)c1nc(-c2ccc(Cl)nc2F)c(F)c(N)c1Cl [Compound 45] | 190 to 191 | 95 to 100 | 95 to 100 | 60 to 74 | 75 to 84 | 75 to 84 | 85 to 94 | 0 to 29 | 0 to 29 | 45 to 59 | 45 to 59 | 30 to 44 | 45 to 59 | 0 to 29 | 0 to 29 | 0 to 29 | 0 to 29 | 85 to 94 | 95 to 100 | 95 to 100 | pest or weed control at 140 g/ha [2, 12]: 95 to 100%; pest or weed control at 70 g/ha [2, 13]: 0 to 29%; pest or weed control at 140 g/ha [2, 13]: 30 to 44%; pest or weed control at 70 g/ha [2, 14]: 95 to 100%; pest or weed control at 140 g/ha [2, 14]: 95 to 100%; pest or weed control at 70 g/ha [2, 15]: 30 to 44%; pest or weed control at 140 g/ha [2, 15]: 45 to 59%; pest or weed control at 70 g/ha [2, 16]: 95 to 100%; pest or weed control at 140 g/ha [2, 16]: 95 to 100%; pest or weed control at 70 g/ha [2, 17]: 75 to 84%; pest or weed control at 140 g/ha [2, 17]: 95 to 100%
COc1c(N)nc(-c2ccc(Cl)c(F)c2C)nc1C(=O)O [Compound 64] | 140 to 143 | 0 to 29 | 0 to 29 | 0 to 29 | 0 to 29 | 0 to 29 | 0 to 29 | 0 to 29 | 0 to 29 | 0 to 29 | 0 to 29 | 0 to 29 | 0 to 29 | 0 to 29 | 0 to 29 | 0 to 29 | 0 to 29 | 0 to 29 | 0 to 29 | 60 to 74 | pest or weed control at 140 g/ha [2, 12]: 75 to 84%; pest or weed control at 70 g/ha [2, 13]: 0 to 29%; pest or weed control at 140 g/ha [2, 13]: 0 to 29%; pest or weed control at 70 g/ha [2, 14]: 95 to 100%; pest or weed control at 140 g/ha [2, 14]: 95 to 100%; pest or weed control at 70 g/ha [2, 15]: 0 to 29%; pest or weed control at 140 g/ha [2, 15]: 0 to 29%; pest or weed control at 70 g/ha [2, 16]: 45 to 59%; pest or weed control at 140 g/ha [2, 16]: 85 to 94%; pest or weed control at 70 g/ha [2, 17]: 0 to 29%; pest or weed control at 140 g/ha [2, 17]: 0 to 29%
